This note sets out measurements from PubChem BioAssay (NCI).

Test systems include XF 498 CNS; KM20L2 colon; HOP-18 NSCLC; DMS 114 small cell lung; DLD-1 colon; SNB-78 CNS; RXF-631 renal; P388 leukemia; SN12K1 renal; P388/ADR leukemia.
What all share (assay): NCI tumour cell line growth inhibition, 48 h

Values joined by “and” are separate entries in the source; they are usually repeats but may differ in a detail not shown here. Equal entries are not always repeated.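 Following 48 hours of exposure in 96-well plates, responses at five concentrations were used to interpolate endpoints linearly. TGI: total growth inhibition.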

For `CC(=O)OCC1OC(n2cc([N+](=O)[O-])c(=O)[nH]c2=O)C(OC(C)=O)C(OC(C)=O)C1OC(C)=O` (stereo not drawn), the TGI with XF 498 CNS, with KM20L2 colon, in the assay on HOP-18 NSCLC, in the assay on DMS 114 small cell lung and in the assay on DLD-1 colon was > 100 µM in each case.
In the case of `CC(=O)N(C(C)=O)C1=C2c3ccccc3N(S(=O)(=O)c3ccccc3)C2n2c(=O)n(-c3ccccc3)c(=O)n2C1` (stereo not drawn), the values for the TGI with KM20L2 colon, in the assay with HOP-18 NSCLC and in the assay on DLD-1 colon were > 100 µM, 86.4 µM and > 100 µM, respectively.
Turning to `C=CCNC(=S)/N=C/c1c(O)c2ccccc2oc1=O`, the TGI in the assay with XF 498 CNS, in the assay on KM20L2 colon, with HOP-18 NSCLC, in the assay on DMS 114 small cell lung, with DLD-1 colon and with SNB-78 CNS was > 100 µM each time.
With `Cc1cn(C2OC(C)(CO)C(O)C2O)c(=O)[nH]c1=O` (stereo not drawn), the TGI in the assay on HOP-18 NSCLC, in the assay with DMS 114 small cell lung and with DLD-1 colon was > 100 µM in each case.
For the compound `N=S(c1ccccc1)c1ccccc1[N+](=O)[O-]` (stereo not drawn), the TGI in the assay with XF 498 CNS was 19.6 µM; in the assay on KM20L2 colon, 41.5 µM; in the assay with HOP-18 NSCLC, > 100 µM; with DMS 114 small cell lung, 32.7 µM; in the assay with DLD-1 colon it was 46 µM; in the assay on SNB-78 CNS it was > 100 µM.
As to `Cc1cc(=O)c2c([nH]1)NS(=O)(=O)NC2=O`, the TGI with XF 498 CNS, in the assay on RXF-631 renal, in the assay with DLD-1 colon and in the assay on SNB-78 CNS was > 100 µM in each case.
Consider `BrC/C=C/C[P+](c1ccccc1)(c1ccccc1)c1ccccc1`, for which the TGI in the assay with XF 498 CNS is 43.6 µM; in the assay on KM20L2 colon, > 100 µM; in the assay with HOP-18 NSCLC, > 100 µM; in the assay with RXF-631 renal, > 100 µM; in the assay on DMS 114 small cell lung, 84 µM; in the assay with SNB-78 CNS it was > 100 µM.
With `CC[C@H]1CN2CCc3cc(OC)c(OC)cc3[C@@H]2C[C@@H]1C[C@H]1NCCc2cc(OC)c(OC)cc21`, the TGI in the assay with KM20L2 colon was 0.488 µM and 0.312 µM; in the assay with HOP-18 NSCLC it was 0.403 µM; with DMS 114 small cell lung, 0.136 µM and 0.0466 µM; in the assay with DLD-1 colon it was 0.591 µM and 0.408 µM.
As for `CC(=O)O[C@]12CCCCCC1C1(O)C(O)CCC[C@H]12` (stereo partly drawn), the TGI in the assay on XF 498 CNS, with KM20L2 colon, in the assay with HOP-18 NSCLC, in the assay on DMS 114 small cell lung and with SNB-78 CNS was > 100 µM each time.
Regarding `O=C(NC(Cc1ccc(I)cc1)C(=O)O)c1ccc(I)cc1` (stereo not drawn), the TGI with XF 498 CNS, with KM20L2 colon, with HOP-18 NSCLC, with P388 leukemia, in the assay on SN12K1 renal and with P388/ADR leukemia was > 100 µM throughout. In addition, the TGI in the assay on DMS 114 small cell lung, with DLD-1 colon and with SNB-78 CNS was > 100 µM in each case.
Take `COCOc1ccc(Cn2c(=O)n(C)c(=O)c3c2ncn3C)cc1[N+](=O)[O-]`: the TGI in the assay on KM20L2 colon, with DMS 114 small cell lung, with DLD-1 colon and with SNB-78 CNS was > 100 µM throughout.
On to `CC(C(=O)n1nnc2ccccc21)N(c1ccccc1)c1ccccc1` (stereo not drawn), for which the TGI in the assay on KM20L2 colon, with DLD-1 colon and with SNB-78 CNS was > 100 µM in each case.
